The source made the active and inactive calls. The calls are words filed in the database; no cut-off is given here.
Tests used:
[1] = test system: Influenza A virus; test: Antiviral activity against Influenza A virus A/WSN/33(H1N1) infected in MDCK cells assessed as inhibition of viral replication at 100 uM measured after 36 hrs by CellTiter-Glo assay; format: functional, organism-based; conditions: A/WSN/1933(H1N1)
[2] = test system: Influenza A virus; test: Antiviral activity against Influenza A virus A/WSN/33(H1N1) infected in MDCK cells assessed as inhibition of viral replication measured after 36 hrs by CellTiter-Glo assay; format: functional, organism-based; conditions: A/WSN/1933(H1N1)
[3] = test system: Influenza A virus; test: Antiviral activity against Influenza A virus A/WSN/33(H1N1) infected in MDCK cells assessed as inhibition of virus-induced cytopathic effects at 50 uM after 36 hrs by microscopic analysis; format: functional, A/WSN/1933(H1N1); parameters: scale not given: the % may be the effect or the level left
[4] = Cytotoxicity against dog MDCK cells assessed as reduction in cell viability measured after 36 hrs by Celltiter-Glo luminescence assay; format: cell-based, Canis lupus familiaris
[5] = test system: MDCK; test: Cytotoxicity against dog MDCK cells assessed as reduction in cell viability at 50 uM measured after 36 hrs by Celltiter-Glo luminescence assay; format: cell-based, Canis lupus familiaris
[6] = Selectivity ratio of CC50 for MDCK cells to IC50 for Influenza A virus A/WSN/33(H1N1) infected in MDCK cells; format: toxicity, cell-based; conditions: dog, read-out: Ratio CC50/IC50
[7] = test system: Influenza A virus (A/WSN/1933(H1N1)); test: Binding affinity to recombinant influenza A virus A/WSN/33(H1N1) hemagglutin assessed as association constant by surface plasmon resonance assay
[8] = Binding affinity to recombinant influenza A virus A/WSN/33(H1N1) hemagglutin by surface plasmon resonance assay; parameters: species or system Influenza A virus (A/WSN/1933(H1N1))
[9] = Binding affinity to recombinant influenza A virus A/WSN/33(H1N1) hemagglutin assessed as dissociation constant by surface plasmon resonance assay; parameters: species or system Influenza A virus (A/WSN/1933(H1N1))
[10] = Drug uptake in dog MDCK cells assessed as increase in red fluorescence at 25 uM incubated for 36 hrs by flow cytometry analysis; format: ADME, cell-based, Canis lupus familiaris
[11] = Drug uptake in dog MDCK cells assessed as increase in red fluorescence at 25 uM incubated for 1 hr by flow cytometry analysis; format: ADME, cell-based, Canis lupus familiaris
[12] = Drug uptake in dog MDCK cells assessed as increase in red fluorescence at 25 uM incubated for 3 hrs by flow cytometry analysis; format: ADME, cell-based, Canis lupus familiaris
[13] = test system: Erythrocyte; test: Inhibition of Influenza A virus A/WSN/33(H1N1) hemagglutinin assessed as inhibition of chicken erythrocytes hemagglutination upto 20 uM incubated for 30 mins; format: cell-based; conditions: Influenza A virus (A/WSN/1933(H1N1)), dose microM <=20, time 30.0 min
[14] = Drug localization in cell membrane of MDCK cells at 25 uM incubated for 1 to 3 hrs by DOI staining based confocal microscopy analysis; format: ADME, cell membranes, Canis lupus familiaris; conditions: dog, time 1-3 hrs
[15] = test system: Influenza A virus; test: Antiviral activity against Influenza A virus A/WSN/33(H1N1) infected in MDCK cells assessed as inhibition of virus-induced cell death at 50 uM preincubated with cells for 30 mins followed by viral infection for 1 hr and measured after 36 hrs; format: functional, A/WSN/1933(H1N1); parameters: scale not given: the % may be the effect or the level left; conditions: time 2250 min, 37.5 h
[16] = test system: Influenza A virus; test: Antiviral activity against Influenza A virus A/WSN/33(H1N1) infected in MDCK cells assessed as inhibition of virus-induced cell death at 50 uM cotreated with virus and cells for 1 hrs and measured after 36 hrs; format: functional, A/WSN/1933(H1N1); parameters: scale not given: the % may be the effect or the level left; conditions: time 37 hrs
[17] = test system: Influenza A virus; test: Antiviral activity against Influenza A virus A/WSN/33(H1N1) infected in MDCK cells preincubated with cells for 5 hrs followed by viral infection; format: functional, organism-based; conditions: A/WSN/1933(H1N1)
[18] = Drug localization in cytoplasm of MDCK cells at 25 uM incubated for 12 hrs by confocal microscopy analysis; format: ADME, subcellular, Canis lupus familiaris; conditions: dog
[19] = test system: Influenza A virus; test: Antiviral activity against Influenza A virus A/WSN/33(H1N1) infected in MDCK cells preincubated with cells for 12 hrs followed by viral infection; format: functional, organism-based; conditions: A/WSN/1933(H1N1)
[20] = test system: Influenza A virus; test: Antiviral activity against Influenza A virus A/WSN/33(H1N1) infected in MDCK cells assessed as reduction in antiviral activity preincubated with cells for 3 hrs followed by viral infection; format: functional, A/WSN/1933(H1N1); parameters: scale not given: the % may be the effect or the level left
[21] = test system: Influenza A virus; test: Antiviral activity against Influenza A virus A/WSN/33(H1N1) infected in MDCK cells assessed as inhibition of virus-induced cell death at 50 uM preincubated with virus for 30 mins followed by cell infection for 1 hr and measured after 36 hrs; format: functional, A/WSN/1933(H1N1); parameters: scale not given: the % may be the effect or the level left; conditions: time 2250 min, 37.5 h
[22] = Stability of compound in dog MDCK cells after 36 hrs; format: ADME, cell-based, Canis lupus familiaris

CCN(CC)c1ccc2c(-c3ccccc3C(=O)O)c3ccc(=[N+](CC)CC)cc-3oc2c1 [RHODAMINE]
Activity [1]: inactive
IC50 [2]: > 100 µM

CC1(C)CC[C@]2(C(=O)O)CC[C@]3(C)C(=CC[C@@H]4[C@@]5(C)CC[C@H](O)C(C)(C)[C@@H]5CC[C@]43C)[C@H]2C1
Activity [3]: 17%

C=C(C)[C@@H]1CC[C@]2(C(=O)NCCN3C(=O)c4ccccc4C34c3ccc(N(CC)CC)cc3Oc3cc(N(CC)CC)ccc34)CC[C@]3(C)[C@H](CC[C@@H]4[C@@]5(C)CC[C@H](O)C(C)(C)[C@@H]5CC[C@]43C)[C@@H]12
CC50 at 36 h [4]: 324 µM
Activity [5]: Non-Toxic
selectivity ratio [6]: 38.8
IC50 [2]: 8.36 µM

C[C@H]1[C@H](C)CC[C@]2(C(=O)O)CC[C@]3(C)C(=CC[C@@H]4[C@@]5(C)CC[C@H](O)C(C)(C)[C@@H]5CC[C@]43C)[C@@H]12
Activity [3]: 31%
Ka [7]: 1.73 10^3/M.s
Kd [8]: 41 µM
Kd [9]: 7.1 10^-2/s

CCN(CC)c1ccc2c(c1)Oc1cc(N(CC)CC)ccc1C21c2ccccc2C(=O)N1CCNC(=O)[C@]12CCC(C)(C)C[C@@H]1C1=CC[C@@H]3[C@@]4(C)CC[C@H](O)C(C)(C)[C@@H]4CC[C@@]3(C)[C@]1(C)CC2
Activity [5]: Non-Toxic
Activity [3]: >90%
IC50 [2]: 14.3 µM

CCN(CC)c1ccc2c(c1)Oc1cc(N(CC)CC)ccc1C21c2ccccc2C(=O)N1CCNC(=O)[C@]12CCC(C)(C)C[C@@H]1C1=CC[C@@H]3[C@@]4(C)CC[C@H](O)C(C)(C)[C@@H]4CC[C@@]3(C)[C@]1(C)C[C@H]2O
Activity [5]: Non-Toxic
Activity [3]: >90%
IC50 [2]: 13.3 µM

CCN(CC)c1ccc2c(c1)Oc1cc(N(CC)CC)ccc1C21c2ccccc2C(=O)N1CCNC(=O)[C@]12CC[C@@H](C)[C@H](C)[C@@H]1C1=CC[C@@H]3[C@@]4(C)CC[C@H](O)C(C)(C)[C@@H]4CC[C@@]3(C)[C@]1(C)CC2
Drug uptake [10]: 97.5%
CC50 at 36 h [4]: 368 µM
Activity [5]: Non-Toxic
Drug uptake [11]: 52.4%
Drug uptake [12]: 62.6%
inhibition [13]: Active
selectivity ratio [6]: 44.7
Drug uptake [14]: Active
Activity [15]: 15%
Activity [3]: >90%
Activity ([3]; A/WSN/1933(H1N1)): Active
Ka [7]: 2.33 10^3/M.s
Kd [8]: 17.8 µM
Activity [16]: 91%
Activity [17]: inactive
Drug uptake [18]: Active
Kd [9]: 4.14 10^-2/s
Activity [19]: inactive
Activity [20]: 25%
IC50 [2]: 8.24 µM
Activity [21]: 95%
Stabilty [22]: Stable

— ChEMBL document CHEMBL4765414, “Rhodamine B-based fluorescent probes for molecular mechanism study of the anti-influenza activity of pentacyclic triterpenes” (Eur J Med Chem, 2020)
